Laboratory results published in paper PMC11971462, “Generation and validation of a novel multitarget small molecule in glioblastoma” (Cell Death & Disease, 2025).

System: GNS166 cells
Assay: Label-free proteomics differential expression
Assay type: cell-based, human
Experimental: Proteomic studies were performed by the Proteomics Facility of the CIC bioGUNE by label-free relative quantification on nLC MS/MS. […] In both approaches, the top 20 enriched terms were plotted and the pathways were clustered using divisive hierarchical clustering based on pairwise Jaccard distances.

SMILES: C#CCN(Cc1cc2cc(OCCCN3CCCCC3)ccc2n1S(=O)(=O)c1ccccc1)C(=O)CCCCCCC(=O)NO [DDI]
- Direction ANR52_HUMAN (protein Q8NB46): Down
- LogFC ANR52_HUMAN (protein Q8NB46): -3.184
- Direction TTC13_HUMAN (protein Q8NBP0): Down
- LogFC TTC13_HUMAN (protein Q8NBP0): -1.381
- LogFC KMT2C_HUMAN (protein Q8NEZ4 GN=KMT2C): 0.407
- LogFC PLBL2_HUMAN (protein Q8NHP8 GN=PLBD2): 1.378
- LogFC NEDD1_HUMAN (protein Q8NHV4 GN=NEDD1): 0.5958
- LogFC SMRC2_HUMAN (protein Q8TAQ2 GN=SMARCC2): -0.7509
- LogFC CX038_HUMAN (protein Q8TB03 GN=CXorf38): 1.347
- LogFC GDAP1_HUMAN (protein Q8TB36 GN=GDAP1): 1.874
- Direction CIP2A_HUMAN (protein Q8TCG1): Down
- LogFC CIP2A_HUMAN (protein Q8TCG1): -1.2095
- LogFC DDX54_HUMAN (protein Q8TDD1 GN=DDX54): -1.067
- Direction DTD1_HUMAN (protein Q8TEA8): Down
- LogFC DTD1_HUMAN (protein Q8TEA8): -0.5287
- LogFC PPIL4_HUMAN (protein Q8WUA2 GN=PPIL4): -1.325
- Direction LMBR1_HUMAN (protein Q8WVP7): Down
- LogFC LMBR1_HUMAN (protein Q8WVP7): -0.9571
- LogFC FACR1_HUMAN (protein Q8WVX9 GN=FAR1): 0.64
- LogFC UBCP1_HUMAN (protein Q8WVY7 GN=UBLCP1): 1.245
- Direction ATX2L_HUMAN (protein Q8WWM7): Down
- LogFC ATX2L_HUMAN (protein Q8WWM7): -0.7543
- Direction PHIP_HUMAN (protein Q8WWQ0): Down
- LogFC PHIP_HUMAN (protein Q8WWQ0): -2.692
- Direction NELFB_HUMAN (protein Q8WX92): Down
- LogFC NELFB_HUMAN (protein Q8WX92): -0.7153
- Direction ATLA1_HUMAN (protein Q8WXF7): Down
- LogFC ATLA1_HUMAN (protein Q8WXF7): -1.239
- Direction CND3_HUMAN (protein Q9BPX3): Down
- LogFC CND3_HUMAN (protein Q9BPX3): -1.5744
- Direction FSP1_HUMAN (protein Q9BRQ8): Down
- LogFC FSP1_HUMAN (protein Q9BRQ8): -0.8531
- Direction GCP2_HUMAN (protein Q9BSJ2): Down
- LogFC GCP2_HUMAN (protein Q9BSJ2): -1.427
- LogFC P4K2A_HUMAN (protein Q9BTU6 GN=PI4K2A): 1.541
- LogFC TMM43_HUMAN (protein Q9BTV4 GN=TMEM43): -0.7287
- LogFC MKNK1_HUMAN (protein Q9BUB5 GN=MKNK1): 1.242
- LogFC TBB2B_HUMAN (protein Q9BVA1 GN=TUBB2B): 1.2351
- Direction PBDC1_HUMAN (protein Q9BVG4): Down
- LogFC PBDC1_HUMAN (protein Q9BVG4): -0.9108
- Direction KIFC1_HUMAN (protein Q9BW19): Down
- LogFC KIFC1_HUMAN (protein Q9BW19): -4.377
- Direction NADAP_HUMAN (protein Q9BWU0): Down
- LogFC NADAP_HUMAN (protein Q9BWU0): -0.9102
- Direction LS14B_HUMAN (protein Q9BX40): Down
- LogFC LS14B_HUMAN (protein Q9BX40): -1.3017
- Direction NUSAP_HUMAN (protein Q9BXS6): Down
- LogFC NUSAP_HUMAN (protein Q9BXS6): -2.873
- Direction EIF2A_HUMAN (protein Q9BY44): Down
- LogFC EIF2A_HUMAN (protein Q9BY44): -0.2917
- LogFC PDIP3_HUMAN (protein Q9BY77 GN=POLDIP3): -0.8716
- LogFC GNB1L_HUMAN (protein Q9BYB4 GN=GNB1L): 2.567
- LogFC PAR6B_HUMAN (protein Q9BYG5 GN=PARD6B): 1.231
- LogFC ARL6_HUMAN (protein Q9H0F7 GN=ARL6): 2.762
- Direction RGAP1_HUMAN (protein Q9H0H5): Down
- LogFC RGAP1_HUMAN (protein Q9H0H5): -3.033
- Direction SMG9_HUMAN (protein Q9H0W8): Down
- LogFC SMG9_HUMAN (protein Q9H0W8): -1.751
- Direction YTDC2_HUMAN (protein Q9H6S0): Down
- LogFC YTDC2_HUMAN (protein Q9H6S0): -1.289
- LogFC ANKZ1_HUMAN (protein Q9H8Y5 GN=ANKZF1): 2.2814
- LogFC EHMT1_HUMAN (protein Q9H9B1 GN=EHMT1): -1.629
- Direction EHD4_HUMAN (protein Q9H223): Down
- LogFC EHD4_HUMAN (protein Q9H223): -0.4023
- LogFC FN3K_HUMAN (protein Q9H479 GN=FN3K): -1.71
- Direction HEAT1_HUMAN (protein Q9H583): Down
- LogFC HEAT1_HUMAN (protein Q9H583): -0.4862
- Direction PHAX_HUMAN (protein Q9H814): Down
- LogFC PHAX_HUMAN (protein Q9H814): -0.7063
- LogFC NT5D2_HUMAN (protein Q9H857 GN=NT5DC2): 0.9697
- Direction ZWILC_HUMAN (protein Q9H900): Down
- LogFC ZWILC_HUMAN (protein Q9H900): -1.417
- LogFC QTRT2_HUMAN (protein Q9H974 GN=QTRT2): -0.9473
- LogFC WDR54_HUMAN (protein Q9H977 GN=WDR54): 2.021
- LogFC ARMT1_HUMAN (protein Q9H993 GN=ARMT1): 1.113
- LogFC KT3K_HUMAN (protein Q9HA64 GN=FN3KRP): 0.7505
- Direction TM165_HUMAN (protein Q9HC07): Down
- LogFC TM165_HUMAN (protein Q9HC07): -0.8409
- Direction CWC22_HUMAN (protein Q9HCG8): Down
- LogFC CWC22_HUMAN (protein Q9HCG8): -0.5601
- LogFC VAT1L_HUMAN (protein Q9HCJ6 GN=VAT1L): 1.2681
- Direction RM47_HUMAN (protein Q9HD33): Down
- LogFC RM47_HUMAN (protein Q9HD33): -0.8741
- Direction TM9S3_HUMAN (protein Q9HD45): Down
- LogFC TM9S3_HUMAN (protein Q9HD45): -0.5879
- Direction HM20A_HUMAN (protein Q9NP66): Down
- LogFC HM20A_HUMAN (protein Q9NP66): -1.261
- LogFC TNR12_HUMAN (protein Q9NP84 GN=TNFRSF12A): -2.0106
- Direction LUC7L_HUMAN (protein Q9NQ29): Down
- LogFC LUC7L_HUMAN (protein Q9NQ29): -0.6796
- Direction SSF1_HUMAN (protein Q9NQ55): Down
- LogFC SSF1_HUMAN (protein Q9NQ55): -1.815
- LogFC CL004_HUMAN (protein Q9NQ89 GN=C12orf4): 1.057
- LogFC ITM2C_HUMAN (protein Q9NQX7 GN=ITM2C): 1.931
- LogFC DBLOH_HUMAN (protein Q9NR28 GN=DIABLO): 1.0021
- LogFC DDX21_HUMAN (protein Q9NR30 GN=DDX21): -1.5607
- LogFC HEBP1_HUMAN (protein Q9NRV9 GN=HEBP1): 1.384
- Direction ABC3C_HUMAN (protein Q9NRW3): Down
- LogFC ABC3C_HUMAN (protein Q9NRW3): -0.8611
- Direction LANC2_HUMAN (protein Q9NS86): Down
- LogFC LANC2_HUMAN (protein Q9NS86): -1.981
- LogFC HOME3_HUMAN (protein Q9NSC5 GN=HOMER3): 1.625
- Direction F207A_HUMAN (protein Q9NSI2): Down
- LogFC F207A_HUMAN (protein Q9NSI2): -1.761
- LogFC DIAP3_HUMAN (protein Q9NSV4 GN=DIAPH3): -2.473
- Direction SMC4_HUMAN (protein Q9NTJ3): Down
- LogFC SMC4_HUMAN (protein Q9NTJ3): -1.4105
- Direction TYDP1_HUMAN (protein Q9NUW8): Down
- LogFC TYDP1_HUMAN (protein Q9NUW8): -1.1128
- Direction FANCI_HUMAN (protein Q9NVI1): Down
- LogFC FANCI_HUMAN (protein Q9NVI1): -3.564
- Direction EVA1B_HUMAN (protein Q9NVM1): Down
- LogFC EVA1B_HUMAN (protein Q9NVM1): -3.511
- Direction THG1_HUMAN (protein Q9NWX6): Down
